Test results as given in patent US20200055817A1 (AbbVie Deutschland GmbH & Co. KG, priority 2016, published 2020).

Legend:
Format in all cases: cell-based
[1] = molecular target: T1, S1P4 (Homo sapiens, UniProt O95977); experiment: Aequorin assay, agonist potency, S1P4; conditions: agonist mode, aequorin luminescence
T1 sequence (O95977 1-384): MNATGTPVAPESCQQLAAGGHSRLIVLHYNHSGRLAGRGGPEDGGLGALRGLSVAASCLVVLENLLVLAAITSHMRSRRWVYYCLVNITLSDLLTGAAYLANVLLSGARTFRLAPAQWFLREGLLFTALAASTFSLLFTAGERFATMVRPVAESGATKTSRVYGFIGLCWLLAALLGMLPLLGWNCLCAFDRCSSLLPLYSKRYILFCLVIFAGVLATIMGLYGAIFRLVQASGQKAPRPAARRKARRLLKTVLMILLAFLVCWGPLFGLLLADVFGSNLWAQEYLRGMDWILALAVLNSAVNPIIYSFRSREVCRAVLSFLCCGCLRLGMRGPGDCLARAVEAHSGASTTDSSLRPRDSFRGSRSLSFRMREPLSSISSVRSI
Method: (§1) Agonistic activity was measured as described below.
(§2) 18 hours prior to the test, vials of frozen cells are quickly thawed in a 37° C. water bath, cells are recovered by centrifugation and resuspended in assay buffer (DMEM/HAM's F12 with HEPES, without phenol red+0.1% fatty acid-free BSA). Cells are gently agitated in suspension overnight at RT in presence of 5 μM of Coelenterazine h (Molecular Probes). On the day of the test, cells are diluted to their final working concentrations in assay buffer and agitated in suspension for 1 h at RT. Cells are then placed in the luminescence reader (Hamamatsu Functional Drug Screening System 6000, FDSS6000). During cells incubation, compounds are prepared in 100% DMSO, and subsequently diluted in assay buffer. Compounds are then dispensed in the assay plate (black, clear-bottom, 384-well plate). After binding of agonists to the human S1P receptor the intracellular calcium concentration increases and binding of calcium to the Aequorin/Coelenterazine complex leads to an oxidation reaction of coelenterazine, which results in the production of Aequorin, coelenteramide, CO2 and light (Dmax 469 nm). The luminescent response is dependent on the agonist concentration. For agonist testing, 30 μL of cell suspension are injected on 30 μL of test compound or reference agonist in the assay plate. The resulting emission of light is recorded for 90 seconds using the FDSS6000. Dose response curves with the reference compounds are performed before testing the compounds. S1P is the reference agonist and JTE-013 the reference antagonist for S1P2.
(§3) Luminescence data are integrated over the reading interval for agonist and antagonist modes. To standardize the emission of recorded light (determination of the “100% signal”) across plates and across different experiments, some of the wells contain 100 μM digitonin or a saturating concentration of ATP (20 μM). Plates also contain the reference agonist at a concentration equivalent to the EC80 obtained during the test validation and the EC100. Dose-response data from test compounds were analyzed with XLfit (IDBS) software using nonlinear regression applied to a sigmoidal dose-response model and the following equation: […]

[2] = molecular target: T2, human EDG8 (S1PR5) receptor (Homo sapiens, UniProt Q9H228); experiment: Aequorin assay, agonist potency, CHO-A21-EDG8#12 cells; conditions: agonist mode, aequorin luminescence; read-out: S1P5 EC50 range #
T2 construct: carries the transgenes human EDG8 (S1PR5) receptor (Acession number NP_110387.1); expressed in transfected cells; host or cells: CHO-A21-EDG8#12 (CHO clone co-expressing mitochondrial aequorin and chimaeric Gaqi5)
T2 sequence (Q9H228 whole entry): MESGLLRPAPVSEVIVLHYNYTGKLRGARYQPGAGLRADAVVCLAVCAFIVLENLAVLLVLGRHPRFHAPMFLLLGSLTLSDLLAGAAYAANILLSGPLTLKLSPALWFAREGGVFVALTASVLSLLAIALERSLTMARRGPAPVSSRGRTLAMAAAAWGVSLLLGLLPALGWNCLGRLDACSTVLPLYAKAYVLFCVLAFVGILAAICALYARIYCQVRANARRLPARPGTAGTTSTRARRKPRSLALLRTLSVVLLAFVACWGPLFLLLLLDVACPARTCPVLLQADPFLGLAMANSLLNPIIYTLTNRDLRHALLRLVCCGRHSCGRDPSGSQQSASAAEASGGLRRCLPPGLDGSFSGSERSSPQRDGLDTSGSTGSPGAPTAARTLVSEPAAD
Method: as §1
(§4) Cell clone CHO-A21-Edg1#17 carries the transgenes human EDG1 (S1PR1) receptor (Accession number NP_001391.2), mitochondrially targeted Aequorin (active part corresponds to accession number 1SL8_A) and chimaeric Gaqi5=Gaq modified with the 5 C-terminal amino-acids replaced with those of the Gai protein (DCGLF). CHO-A2-S1P3 Mix is a cell pool ectopically expressing human EDG3 (S1PR3) receptor (Accession number NP_005217.2) mitochondrially targeted Aequorin (active part has a sequence similar to accession number AY601106.1) and GNA16 (Accession number NP_002059.3). Cell clone CHO-A21-EDG8#12 carries the transgenes human EDG8 (S1PR5) receptor (Acession number NP_110387.1), mitochondrially expressed Aequorin (active part corresponds to accession number 1SL8_A) and chimaeric Gaqi5 (Gaq modified to present the 5 last amino-acids of the Gai protein “DCGLF”; see above). Cells are grown to mid-log phase in culture medium (HAM's F12, 10% FBS, 100 IU/mL penicillin, 100 μg/mL streptomycin, 250 μg/mL Zeocin, 400 μg/mL G418). 18 hours prior to frozen cells preparation, the medium is changed to remove the antibiotics.
as §2, §3

[3] = molecular target: T3, human EDG1 (S1PR1) receptor (Homo sapiens, UniProt P21453); experiment: Aequorin assay, agonist potency, CHO-A21-Edg1#17 cells; conditions: agonist mode, aequorin luminescence; read-out: S1P1 EC50
T3 construct: expressed in transfected cells; host or cells: CHO-A21-Edg1#17 (CHO clone co-expressing mitochondrial aequorin and chimaeric Gaqi5)
T3 sequence (P21453 whole entry): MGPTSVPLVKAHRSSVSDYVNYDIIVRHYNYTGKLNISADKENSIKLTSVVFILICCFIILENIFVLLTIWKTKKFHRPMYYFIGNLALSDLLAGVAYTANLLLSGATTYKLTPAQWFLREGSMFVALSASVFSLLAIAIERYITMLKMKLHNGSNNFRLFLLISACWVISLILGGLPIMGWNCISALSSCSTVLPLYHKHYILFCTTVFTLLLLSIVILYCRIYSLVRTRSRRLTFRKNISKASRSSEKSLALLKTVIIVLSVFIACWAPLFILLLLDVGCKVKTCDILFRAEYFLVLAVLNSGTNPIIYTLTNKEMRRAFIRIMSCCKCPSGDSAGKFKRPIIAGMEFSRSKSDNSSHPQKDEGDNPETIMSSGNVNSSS
Method: as §1, §4, §2, §3

O=C(O)C1(CN2CC3(Cc4ccc(OCc5cc(F)ccc5C(F)(F)F)cc4C3)C2)CC1 [Example 43, 1-((5′-((5-fluoro-2-(trifluoromethyl)benzyl)oxy)-1′,3′-dihydrospiro[azetidine-3,2′-inden]-1-yl)methyl)cyclopropanecarboxylic acid Compound with 2,2,2-trifluoroacetic acid (1:1)]
EC50 [1]: < 1000 nM
EC50 [2]: 1000 to 10000 nM
EC50 [3]: > 1000 nM

O=C(O)C1(CN2CC3(Cc4ccc(OCc5c(Cl)cccc5C(F)(F)F)cc4C3)C2)CC1 [Example 47, 1-((5′-((2-chloro-6-(trifluoromethyl)benzyl)oxy)-1′,3′-dihydrospiro[azetidine-3,2′-inden]-1-yl)methyl)cyclopropanecarboxylic acid Compound with 2,2,2-trifluoroacetic acid (1:1)]
EC50 [1]: < 1000 nM
EC50 [2]: ≤ 10 nM
EC50 [3]: > 1000 nM

CCc1cccc(F)c1COc1ccc2c(c1)CC1(C2)CN(CC2(C(=O)O)CC2)C1 [Example 48, 1-((5′-((2-ethyl-6-fluorobenzyl)oxy)-1′,3′-dihydrospiro[azetidine-3,2′-inden]-1-yl)methyl)cyclopropanecarboxylic acid]
EC50 [1]: < 1000 nM
EC50 [2]: ≤ 10 nM
EC50 [3]: > 1000 nM

O=C(O)C1(CN2CC3(Cc4ccc(OCc5c(F)cccc5C(F)(F)F)cc4C3)C2)CC1 [Example 49, 1-((5′-((2-fluoro-6-(trifluoromethyl)benzyl)oxy)-1′,3′-dihydrospiro[azetidine-3,2′-inden]-1-yl)methyl)cyclopropanecarboxylic acid]
EC50 [1]: < 1000 nM
EC50 [2]: ≤ 10 nM
EC50 [3]: > 1000 nM

O=C(O)C1(CN2CC3(Cc4ccc(-c5ccc(OCc6ccccc6)cc5)cc4C3)C2)CC1 [Example 53, 1-((5′-(4-(benzyloxy)phenyl)-1′,3′-dihydrospiro[azetidine-3,2′-inden]-1-yl)methyl)cyclopropanecarboxylic acid]
EC50 [1]: < 1000 nM
EC50 [2]: 100 to 1000 nM
EC50 [3]: > 1000 nM

O=C(O)C1(CN2CC3(Cc4ccc(OCCc5ccccc5)cc4C3)C2)CC1 [Example 54, 1-((5′-phenethoxy-1′,3′-dihydrospiro[azetidine-3,2′-inden]-1-yl)methyl)cyclopropanecarboxylic acid]
EC50 [1]: < 1000 nM
EC50 [2]: 1000 to 10000 nM
EC50 [3]: > 1000 nM

O=C(O)C1(CN2CC3(Cc4ccc(OCCc5ccc(Cl)cc5)cc4C3)C2)CC1 [Example 55, 1-((5′-(4-chlorophenethoxy)-1′,3′-dihydrospiro[azetidine-3,2′-inden]-1-yl)methyl)cyclopropanecarboxylic acid]
EC50 [1]: < 1000 nM
EC50 [2]: 1000 to 10000 nM
EC50 [3]: > 1000 nM

O=C(O)C1(CN2CC3(Cc4ccc(OCCc5ccccc5C(F)(F)F)cc4C3)C2)CC1 [Example 56, 1-((5′-(2-(trifluoromethyl)phenethoxy)-1′,3′-dihydrospiro[azetidine-3,2′-inden]-1-yl)methyl)cyclopropanecarboxylic acid]
EC50 [1]: < 1000 nM
EC50 [2]: 10 to 100 nM
EC50 [3]: > 1000 nM

O=C(O)C1(CN2CC3(Cc4ccc(OCCc5cccc(Cl)c5)cc4C3)C2)CC1 [Example 57, 1-((5′-(3-chlorophenethoxy)-1′,3′-dihydrospiro[azetidine-3,2′-inden]-1-yl)methyl)cyclopropanecarboxylic acid]
EC50 [1]: < 1000 nM
EC50 [2]: 100 to 1000 nM
EC50 [3]: < 1000 nM

O=C(O)C1(CN2CC3(Cc4ccc(OCCc5ccccc5Cl)cc4C3)C2)CC1 [Example 58, 1-((5′-(2-chlorophenethoxy)-1′,3′-dihydrospiro[azetidine-3,2′-inden]-1-yl)methyl)cyclopropanecarboxylic acid]
EC50 [1]: < 1000 nM
EC50 [2]: 100 to 1000 nM
EC50 [3]: > 1000 nM

O=C(O)CN1CC2(Cc3ccc(OCCc4ccccc4)cc3C2)C1 [Example 60, 2-(5′-phenethoxy-1′,3′-dihydrospiro[azetidine-3,2′-inden]-1-yl)acetic acid]
EC50 [1]: > 1000 nM
EC50 [2]: 1000 to 10000 nM
EC50 [3]: > 1000 nM

O=C(O)CN1CC2(Cc3ccc(OCCc4ccccc4Cl)cc3C2)C1 [Example 61, 2-(5′-(2-chlorophenethoxy)-1′,3′-dihydrospiro[azetidine-3,2′-inden]-1-yl)acetic acid]
EC50 [1]: < 1000 nM
EC50 [2]: 10 to 100 nM
EC50 [3]: > 1000 nM

CCc1cccc(F)c1COc1ccc2c(c1)CC1(C2)CN(CC(C)CC(=O)O)C1 (stereo not drawn) [Example 65, 4-(5′-((2-ethyl-6-fluorobenzyl)oxy)-1′,3′-dihydrospiro[azetidine-3,2′-inden]-1-yl)-3-methylbutanoic acid]
EC50 [1]: < 1000 nM
EC50 [2]: 10 to 100 nM
EC50 [3]: > 1000 nM

O=C(O)CN1CC2(Cc3ccc(OC4CCc5ccccc54)cc3C2)C1 (stereo not drawn) [Example 66, 2-(5′-((2,3-dihydro-1H-inden-1-yl)oxy)-1′,3′-dihydrospiro[azetidine-3,2′-inden]-1-yl)acetic acid]
EC50 [1]: < 1000 nM
EC50 [2]: ≤ 10 nM
EC50 [3]: > 1000 nM

O=C(O)CN1CC2(Cc3ccc(OC4CCc5cccc(Cl)c54)cc3C2)C1 (stereo not drawn) [Example 67, 2-(5′-((7-chloro-2,3-dihydro-1H-inden-1-yl)oxy)-1′,3′-dihydrospiro[azetidine-3,2′-inden]-1-yl)acetic acid]
EC50 [1]: < 1000 nM
EC50 [2]: ≤ 10 nM
EC50 [3]: > 1000 nM

O=C(O)CN1CC2(Cc3ccc(OC4CCc5cc(Br)cc(F)c54)cc3C2)C1 (stereo not drawn) [Example 68, 2-(5′-((5-bromo-7-fluoro-2,3-dihydro-1H-inden-1-yl)oxy)-1′,3′-dihydrospiro[azetidine-3,2′-inden]-1-yl)acetic acid]
EC50 [1]: < 1000 nM
EC50 [2]: ≤ 10 nM
EC50 [3]: > 1000 nM

O=C(O)CN1CC2(Cc3ccc(OC4CCc5cc(Cl)cc(Cl)c54)cc3C2)C1 (stereo not drawn) [Example 69, 2-(5′-((5,7-dichloro-2,3-dihydro-1H-inden-1-yl)oxy)-1′,3′-dihydrospiro[azetidine-3,2′-inden]-1-yl)acetic acid]
EC50 [1]: < 1000 nM
EC50 [2]: ≤ 10 nM
EC50 [3]: > 1000 nM

O=C(O)CN1CC2(Cc3ccc(OCCOc4ccccc4)cc3C2)C1 [Example 70, 2-(5′-(2-phenoxyethoxy)-1′,3′-dihydrospiro[azetidine-3,2′-inden]-1-yl)acetic acid]
EC50 [1]: < 1000 nM
EC50 [2]: 100 to 1000 nM
EC50 [3]: > 1000 nM

O=C(O)CN1CC2(Cc3ccc(OCCOc4ccc(Cl)cc4)cc3C2)C1 [Example 71, 2-(5′-(2-(4-chlorophenoxy)ethoxy)-1′,3′-dihydrospiro[azetidine-3,2′-inden]-1-yl)acetic acid]
EC50 [1]: > 1000 nM
EC50 [2]: 1000 to 10000 nM
EC50 [3]: > 1000 nM

O=C(O)CN1CC2(Cc3ccc(OCc4cccc5c4OCC5)cc3C2)C1 [Example 72, 2-(5′-((2,3-dihydrobenzofuran-7-yl)methoxy)-1′,3′-dihydrospiro[azetidine-3,2′-inden]-1-yl)acetic acid]
EC50 [1]: < 1000 nM
EC50 [2]: 100 to 1000 nM
EC50 [3]: > 1000 nM

O=C(O)CN1CC2(Cc3ccc(OC4Cc5ccccc5C4)cc3C2)C1 [Example 73, 2-(5′-((2,3-dihydro-1H-inden-2-yl)oxy)-1′,3′-dihydrospiro[azetidine-3,2′-inden]-1-yl)acetic acid]
EC50 [1]: < 1000 nM
EC50 [2]: 100 to 1000 nM
EC50 [3]: > 1000 nM
